According to BindingDB's records for doi:10.1021/jm00398a002 (University of Kansas, 1988):

Biological target: Adenosylhomocysteinase (Bos taurus)
Assay: Time course of inactivation of bovine liver S-adenosyl-homocysteine hydrolase

Compound | Ki
Nc1nccc2c1ncn2C1C=C[C@@H](O)[C@H]1O (some centres not stated) | 35 nM
Nc1ncnc2c1ncn2[C@@H]1C=C[C@@H](O)[C@H]1O | 41 nM
